Assay results as given in patent US20070105810A1, “THERAPEUTICS” (priority 2003, published 2007).
Entries after “also recorded” stand apart in the source; their conditions may differ.

Assays:
[1] = tested on: IP3-induced Ca2+ signal in Jurkat T cells; assay: Ca2+ signalling evoked by microinjection of IP3 in Jurkat T cells; assay type: cell-based, human; conditions: co-injection of BZ52 1 mM with IP3 4 μM
Protocol: NAADP (final concentration 100 nM), IP3 (final concentration 4 μM), and BZ52 (final concentration 1 mM) were injected into single Jurkat T cells while [Ca^2+]i was analyzed by Ca^2+ imaging. Data are presented as mean±SEM (n=4 to 13).
The Jurkat T cells were loaded with fura-2/AM and kept in the dark at room temperature until use. Glass coverslips were coated first with BSA (5 mg/ml) and subsequently with poly-L-lysine (0.1 mg/ml). Small chamber slides consisting of a rubber O-ring were sealed on thin (0.1 mm) glass coverslips by silicon grease. Then, 60 μl buffer A containing 140 mM NaCl, 5 mM KCl, 1 mM MgSO4, 1 mM CaCl2, 1 mM NaH2PO4, 5.5 mM glucose, and 20 mM HEPES (pH 7.4), and 40 μl cell suspension (2*10^6 cells/ml) suspended in the same buffer were added into the small chamber and the coverslip was mounted on the stage of a fluorescence microscope (Leica DM IRE2).
Ratiometric Ca^2+ imaging was performed as described earlier. In brief, we used an Improvision imaging system (Heidelberg, Germany) built around the Leica microscope at 100-fold magnification. Illumination at 340 and 380 nm was carried out using a monochromator system (Polychromator IV, TILL Photonics, Graefelfing, Germany). Images were taken with a gray-scale CCD camera (type C4742-95-12ER; Hamamatsu, Enfield, United Kingdom; operated in 8-bit mode). […]

[2] = tested on: T cell receptor/CD3 complex mediated Ca2+ signalling; assay: T cell receptor/CD3 complex mediated Ca2+ signalling in human T cells; assay type: cell-based
Protocol: Intact Jurkat T-lymphocytes were loaded with fura2/AM. Ratiometric determination of [Ca^2+]i was carried out in cell suspension in a Hitachi F2000 fluorometer at room temperature at excitation wavelengths of 340 and 380 nm (alternating) and an emission wavelength of 495 nm. Each experiment was calibrated by addition of Triton X100 (10% v/v final concentration) to obtain the maximal ratio and subsequent addition of 4 mM EGTA/40 mM Tris-base to obtain the minimal ratio.
[Ca^2+]i was measured by using the fluorescent indicator Fura2/AM. In brief, 10^7 cells were loaded with Fura2/AM, and fluorescence was determined in batches of 1.5×10^6 cells with an Hitachi F-2000 fluorimeter at excitation and emission wavelengths of 340 and 380 nm (exc.) and 505 nm (em.), respectively. Measurements were carried out at 20° C. At the end of each single measurement maximal and minimal ratios were determined by addition of Triton X-100 and EGTA/Tris.

[3] = tested on: cytokine production (IL-2, IFNγ, TNFα, IL-2 receptor mRNA); assay: Quantitative PCR of cytokine mRNA in spinal cord and spleen of EAE animals; assay type: in vivo, rat; conditions: spinal cord tissue 4 days after T cell transfer; BZ194 5 d, 500 μmol; relative to β actin and CD3
Protocol: Quantitative PCR of spinal cords and spleens 4 days after T cell transfer of animals treated with vehicle (DMSO) of BZ 194 (5 d, 500 μmol). IFNg A,B and IL-2 C,D mRNAs were measured in relation to housekeeping gene β actin A,C or T cell marker CD3 B,D.
(§1) mRNA was extracted using standard protocols (Sigma-Aldrich) and reversed to cDNA (Invitrogen). Taqman analysis was performed as reported (Flügel et al. 2001, Immunity) using ABI Prim 7700 Sequence Detector “Taqman” (PE Applied Biosystems). The expression of a housekeeping gene (b-actin) was set into relation to the specific mRNA. Data were obtained by independent duplicate measurements.

OVA-specific T cells = assay: Proliferation of cultured OVA-specific T cells; assay type: cell-based
rat MBP-specific T cells = assay: Cytokine (IL2 mRNA) expression of in vitro-cultured MBP-specific T cells, quantitative PCR; assay type: cell-based; conditions: IL2 quantitative PCR after 48 h
Protocol: Cells were stimulated in presence of MBP-pulsed irradiated APCs and increasing concentrations of BZ194. After 48 h cells were collected for cytofluorometric cell count A and RNA extraction was performed for quantitative PCR analysis (IL2) B. Effect of BZ194 on pre-activated T cell blasts C. Amplification of MBP-specific T cells which had been incubated before in the presence of DMSO or 0.5 mM or 1 mM BZ194 D.
as §1
BZ194 strongly influenced the function of rat MBP-specific T cells in vitro and in vivo. Proliferation and cytokine expression of the T cells was tested in vitro after incubation with irradiated MBP-pulsed thymic antigen presenting cells (in rats the commonly used APC type, ref. 5). […] Additionally, the expression of cytokine production by the T cells was reduced (FIG. 18B). Importantly, these effects were not due to toxicity of BZ194.

Solubility = assay type: physicochemical; conditions: excluded intravenous application
[4] = Tolerability of intraperitoneal injection in Lewis rats; assay type: in vivo
Description: Limited solubility of BZ194 excluded intravenous application due to embolic complications.

CCCCN(CCCC)C(=O)C[n+]1cccc(C(=O)O)c1 [BZ52, 3-Carboxy-1-dibutylcarbamoylmethyl-pyridinium]
IP3-induced Ca2+ signal [1]: no difference

CCCCCCCCNC(=O)C[n+]1cccc(C(=O)O)c1.[Br-] [BZ194, 3-Carboxy-1-Octylcarbamoylmethyl-Pyridinium]
TCR/CD3 complex mediated Ca2+ signalling [2]: partially blocked
cytokine (mRNA) production ex vivo [3]: suppressed; also recorded: significant reduction
proliferation (OVA-specific T cells): anti-proliferative effect
cytokine (mRNA) production in vitro (rat MBP-specific T cells): suppressed; also recorded: reduced
solubility (Solubility): Limited
adverse effect ([4]; higher amounts of BZ194 i.p.): occasionally induced peritonitis
tolerability (inspection, weight development, immune cell count) ([4]; i.p., solubilized in DMSO, 180 mg/kg, 5 days): well tolerated
